Experiments:
BEAS-2B cells = assay: In vitro oxygen exposure of BEAS-2B cells, YKL-40 expression by real-time RT-PCR; assay type: cell-based, human; conditions: 95% O2, pretreatment 10 mM 1 hour before oxygen exposure, FIG. 1G
Description: mRNA levels were assessed by real-time reverse transcriptase-polymerase chain reaction, as previously described. […] The sequences for the primers that were used were obtained from Primer Bank online (pga.mgh.harvard.edu/primerbank) Human bronchial epithelial cell line BEAS-2B cells (ATCC, Rockville, Md.) were incubated in complete bronchial epithelial basal medium (Lonza, Walkersville, Md.). They were placed in an airtight modular incubator chamber (Billups-Rothenberg, Del Mar, Calif.), which had been flushed continuously with 95% O2/5% CO2 until the oxygen level inside the chamber reached approximately 95%. The incubator chamber was then placed in a tissue culture incubator at 37° C., the O2 inside the chamber was replaced every 24 hours, and the cells were harvested at the desired time points (24-72 h). The responses in these cells were compared with events in cells incubated in 5% CO2 and air. In select experiments, the cells were incubated with N-acetyl-L-cysteine (Sigma, St. Louis, Mo.), which was added at a dose of 10 mM 1 hour before oxygen exposure, or its vehicle control.

mice exposed to 100% O2 = assay: Hyperoxic acute lung injury (100% O2 exposure) in mice; assay type: in vivo
Description: BRP-39^−/− mice were generated and used as previously described (Lee et al., 2009, J Exp Med 206; 1149-1166). The mice were generated on a mixed 129/C57BL/6 background and subsequently bred for more than 10 generations onto a C57BL/6 background. Transgenic mice in which human YKL-40 was tightly and inducibly overexpressed (CC10-rtTA-tTS-YKL-40) in a lung-specific manner were generated with constructs and approaches that have been previously described. (Lee et al., 2009, J Exp Med 206:1149-1166). Mice that lacked BRP-39 and produced YKL-40 only in pulmonary epithelial cells (CC10-rtTA-tTS-YKL-40/BRP-39^−/−) were generated by breeding the CC10-rtTA-tTS-YKL-40 and BRP-39^−/− mice. Mice with caspase-3-null mutations were kindly provided by Dr. Flavell (Dept. of Immunobiology, Yale University School of Medicine). Animal protocols were approved by the Yale University Institutional Animal Care and Use Committee, the guidelines of which were followed for all experiments.
Mice (4-6 wk old) were placed in cages in an airtight Plexiglas chamber (55×40×50 cm), as described previously (Waxman et al., 1998, J Clin Invest 101:1970-1982; Ward et al., 2000, Am J Respir Cell Mol Biol 22:535-542; Wang et al., 2003, J Biol Chem 278:31226-31232). Throughout the experiment, they were given free access to food and water. Oxygen levels were constantly monitored by an oxygen sensor, which was connected to a relay switch incorporated into the oxygen supply circuit. The inside of the chamber was kept at atmospheric pressure, and mice were exposed to a 12-hour light-dark cycle. […]
Bronchoalveolar lavage (BAL; 50 μg) fluids and/or lung lysates were subjected to immunoblot analysis with antibodies against inhibitor of caspase-activated deoxyribonuclease (Chemicon International, Billerica, Mass.), caspase-3 (Cell Signaling Technology, Danvers, Mass.) or β-tubulin (Santa Cruz Biotechnology, Inc.), and the polyclonal rabbit antiserum against BRP-39, as noted above. These samples were fractionated by polyacrylamide gel electrophoresis, transferred to membranes, and evaluated as described previously (Kang et al., 2007, J Exp Med 204:1083-1093).
The levels of BRP-39 in BAL or lung lysates were evaluated by ELISA with an anti-BRP-39 rabbit polyclonal IgG for capture and biotinylated anti-BRP-39, followed by horseradish peroxidase-labeled streptavidin (GE Healthcare, Piscataway, N.J.) for detection. […] The levels of BAL fluid CXCL-1 and CCL-2 were measured by ELISA with commercial kits (R&D Systems, Minneapolis, Minn.), as directed by the manufacturer.
DNA fragmentation and cell death were evaluated with terminal deoxynucleotidyl transferase-mediated dUTP nick end labeling (TUNEL) assays, as previously described. […]

Compound: CC(=O)N[C@@H](CS)C(=O)O [N-acetyl-L-cysteine]
- effect on hyperoxia inhibition of YKL-40 expression (BEAS-2B cells): abrogated the YKL-40-inhibiting effects of hyperoxia

Compound: YKL-40: human homolog of BRP-39, chitinase-like protein; inducibly overexpressed as a transgene in mouse lung epithelium
- survival in 100% oxygen (mice exposed to 100% O2; BRP-39−/− mice with epithelial-targeted transgenic YKL-40 (CC10-rtTA-tTS-YKL-40/BRP-39−/−), FIG. 5A): enhanced the survival
- augmented hyperoxia-induced responses (permeability, protein leak, tissue and BAL inflammation, KC/CXCL-1 and MCP-1/CCL2, TUNEL-positive cell death, caspase-3 activation) (mice exposed to 100% O2; BRP-39−/− mice with epithelial-targeted transgenic YKL-40, 100% O2, FIGS. 5B-5H): restored to levels comparable to those in WT animals
- survival in 100% O2 (mice exposed to 100% O2; CC10-rtTA-tTS-YKL-40 mice on WT genetic background, FIG. 5I): enhanced
- alveolar capillary permeability alterations, protein leak, tissue and BAL inflammation, KC/CXCL-1 and MCP-1/CCL2 production, TUNEL-positive cell death, caspase-3 activation (mice exposed to 100% O2; YKL-40 Tg animals on WT genetic background, 100% O2, FIGS. 5B-5H): diminished

From US20130156750A1, “Compositions and Methods for Using Human YKL-40 to Treat Acute Lung Injury” (YALE UNIVERSITY, priority 2010, published 2013)
